Measurements taken from PubChem BioAssay AID558 (University of Pittsburgh Molecular Library Screening Center, 2006).
Calls of active or inactive are those of the source. The rule behind the calls is not given here.

Biological target: Dual specificity protein phosphatase 1 (Homo sapiens) (UniProt P28562)
Assay: MKP-1 phosphatase inhibition under DTT, dose response, biochemical, DTT added, probe assessment (AID 558)
Details: recombinant MKP-1 phosphatase, fluorescence, with DTT

Chain of Dual specificity protein phosphatase 1 (Homo sapiens) (P28562 whole entry, looked up): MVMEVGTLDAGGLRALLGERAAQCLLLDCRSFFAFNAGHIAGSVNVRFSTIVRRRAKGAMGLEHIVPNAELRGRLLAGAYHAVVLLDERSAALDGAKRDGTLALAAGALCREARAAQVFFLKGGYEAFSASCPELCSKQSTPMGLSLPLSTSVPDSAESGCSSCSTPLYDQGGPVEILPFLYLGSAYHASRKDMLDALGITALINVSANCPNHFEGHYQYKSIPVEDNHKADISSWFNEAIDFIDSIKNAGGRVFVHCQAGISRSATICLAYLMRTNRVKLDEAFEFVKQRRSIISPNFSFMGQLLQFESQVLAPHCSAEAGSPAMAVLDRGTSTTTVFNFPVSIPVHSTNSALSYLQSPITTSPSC

IC50: > 50 µM (inactive)
SMILES: O=C1C(C2=C(O)c3ccccc3C2=O)=Nc2ccccc21
